US20090203646A1, “USE OF SODIUM NARCISTATIN FOR REDUCING INTERNAL ADHESIONS AND FIBROSIS” (Sun Health Research Institute, priority 2008, published 2009)
Entries after “also recorded” stand apart in the source; their conditions may differ.

Columns and labels:
[1] = tested on: tumor growth; conditions: cited from earlier work
[2] = tested on: Spleen cells treated with the B-cell dependent mitogen, LPS; assay: Cytokine production by spleen cells treated with LPS (ELISA); assay type: cell-based, Lewis rats; conditions: 1 or 10 μg/ml, 24 h
Experimental: (§1) Immune Cell Cytokine Profile Assessment: A second experiment was completed to determined whether the adhesion reducing action of sodium narcistatin could be due to altering immune cell pro-inflammatory cytokine profiles known to […] adhesion formation. Spleen cells were cultured from young adult Lewis rats and treated in vitro with either Con A or LPS, T or B cell mitogen, respectively. Cultures with and without Con A or LPS were then treated with sodium narcistatin (0, 1, or 10 μg/ml). Cultures were incubated for 24 h at 37° C. After 24 h, supernatants were collected and cytokines were assessed using cytokine specific ELISA assays.
Cell Culture: Spleens were aseptically removed into Hank's balanced salt solution (HBSS). […]
Cultures for Cytokine Analysis: The prepared cells were counted using a hemocytometer, then brought to the concentration of 2×10^6 cells/ml. […]
(§2) After color development the plates were stopped with addition of 1N sulfuric acid. Unknown sample cytokine levels were determined through comparison with a standard curve present on each plate using an ELISA reader (Ceres 900 HDI: Bio Tek Instruments Incorporated: Winooski, Vt.). The concentrations were averaged for each treatment group at each time point, expressed as mean±SEM in ng/ml, and subjected to a one-way ANOVA (p<0.05) with Bonferroni post-hoc testing.

[3] = tested on: splenic adhesions in the peritoneal cavity of rats with inflammatory arthritis; assay: Adhesion formation in rats with CFA-induced inflammatory arthritis (gross observation and adhesion scoring)
[4] = tested on: Rat fibroblast cells; assay: Fibroblast proliferation, tritiated thymidine assay; assay type: cell-based
Experimental: Fibroblast Proliferation Assessment: A third experiment was completed to determined whether the adhesion reducing action of sodium narcistatin could be due to direct effects of sodium narcistatin to prevent fibroblast proliferation.
Proliferation of rat fibroblasts were assessed using standard tritiated thymidine assays as follows. Rat fibroblast cells were cultured in the presence of narcistatin in concentrations ranging from 0 to 1 mg/ml. The assay was completed in triplicate. Cells were pulsed at 24 h with 0.5 μCi 3H-Thymidine/well and incubated for 48 h at 37° C. At 48 h plates were pulled from the incubator and cells were harvested using a Brandel Cell Harvester. Filters with collected cells were washed 12× with 200 μl of ice cold distilled water). Fiberglass filers containing cells were placed into scintillation vials with 4 ml of ScintSafe Econo2 scintillation fluid. Radioactivity measured using a scintillation counter

[5] = tested on: arthritic rats; assay: Tolerability of the drug in arthritic rats; assay type: in vivo, Lewis rats
Description: While there is variability in the severity of disease development between the batches of adjuvant, there is very little within batch variability. All animals in each experiment were challenged with the same preparation of adjuvant. All animals in this experiment that received CFA developed arthritis from this adjuvant preparation. The arthritis disease pathology that developed in both experiments was the same in onset and severity.

[6] = tested on: Spleen cells treated with the T-cell dependent mitogen, Con A; assay: Cytokine production by spleen cells treated with Con A (ELISA); assay type: cell-based, Lewis rats
Experimental: as §1
Cell Culture: Spleens were aseptically removed into Hank's balanced salt solution (HBSS). The spleens were placed in a stomacher bag and homogenized for 30 seconds. Spleen cells were triturated with a 10 ml pipette then washed with an additional 10 ml of HBSS and passed through a nylon mesh (Marsh Industries) to remove the extraneous connective tissue. The collected cells were centrifuged and resuspended in 5 ml of a NH4Cl hypotonic buffer for 3 min to lyse the red blood cells. The cells were washed 2× with 10 ml HBSS, centrifuged and resuspended into complete RPMI 1640 media supplemented with 5% fetal calf serum and 1% antibiotic/antimycotic.
Cultures for Cytokine Analysis: The prepared cells were counted using a hemocytometer, then brought to the concentration of 2×10^6 cells/ml. Two ml of the cell preparation were plated into 24 well plates (Falcon: Oxnard, Calif.), in the absence or presence of mitogen and in placed in an incubator 7% CO2, 37° C., for 24 h. After 24 h the culture supernatants were harvested and placed in the freezer at −70° C. until ELISA assay.
Cytokine Production: Duo sets for the detection of IL-1, IL-2, IL-4, IL-10, IFN-γ and TNF-α were obtained from R & D Systems and sandwich ELISAs were used to measure the amount cytokine released into the culture media. High binding microtiter 96-well plates were pre-coated with 100 μl of capture antibody in coating buffer for IL-1, IL-2, IL-4, IL-10, IFN-γ and TNF-α (0.15 M phosphate buffer, pH 7.4). The plates were sealed with plate film (Denville Scientific: South Plainfield, N.J.) and placed at 4° C. overnight. […]
as §2

[7] = tested on: Japanese encephalitis; conditions: flavivvirus infection; cited from earlier work
[8] = tested on: Encephalitozoan intestinalis; conditions: cited from earlier work
[9] = tested on: intraperitoneal adhesion formation; conditions: after surgery; cited from earlier work

Molecule: O=C1N[C@@H]2C(=C[C@H](O)[C@@H](O)[C@H]2O)c2cc3c(c(O)c21)OCO3 [Narciclasine, narciclasine]
- anticancer properties [1]: anticancer properties

Molecule: O=C1N[C@@H]2C(=C[C@H](O)[C@H]3OP(=O)(O)O[C@H]32)c2cc3c(c(O)c21)OCO3 [sodium narcistatin]
- production of IL-1 (IL-1β) [2]: reduced
- production of TNF-α [2]: reduced
- number of adhesions in the thoracic and abdominal cavities ([3]; arthritic animals, compared to untreated or vehicle-treated arthritic animals): dramatically reduced
- splenic adhesion development in peritoneal cavity (FIG. 2) ([3]; arthritic rats, 4.5 mg/Kg intraperitoneal, day 10 to day 28 post-immunization): little to no adhesions
- formation of dense fibrous connective tissue covering over the spleen and pancreas (adhesion scoring, FIG. 3) ([3]; arthritic rats, 4.5 mg/Kg intraperitoneal, blinded subjective scoring): largely prevented
- inhibition of fibroblast proliferation in vitro (FIG. 6) ([4]; 0 to 1 mg/ml): potent inhibitor; also recorded: dose dependent
- reduction of fibroblast proliferation ([4]; at 0.001 mg/ml): 50%
- fibroblast proliferation reduced to ([4]; at 0.01 mg/ml): ~0%
- tolerability ([5]; arthritic animals, 4.5 mg/Kg): tolerate the drug well
- body weights, grooming, feeding and drinking behavior ([5]; vehicle- versus narcistatin-treated arthritic rats): no differences
- production of IFN-γ ([6]; 1 or 10 μg/ml, 24 h): reduced
- production of IL-1 ([6]; 1 or 10 μg/ml, 24 h): reduced
- production of IL-2 ([6]; 1 or 10 μg/ml, 24 h): reduced
- production of Con-A induced IFN-α ([6]; summary sentence b104): reduced

Molecule: O=C1N[C@H]2[C@H](O)[C@H](O)[C@@H](O)[C@H](O)[C@@H]2c2cc3c(c(O)c21)OCO3 [Pancratastatin]
- survival rate [7]: up to 100%
- potency in inhibiting tumor growth ([1]; relative to sodium narcistatin): more potent than sodium narcistatin
- activity against the parasite [8]: activity

Molecule: O=C(c1ccccc1)c1ccc2n1CCC2C(=O)O (centres unmarked) [Ketorolac, reference compound]
- adhesion formation/reformation [9]: reduces adhesion formation

B1: IL-10: anti-inflammatory cytokine (protein, UniProt P22301 19-178, looked up)
Interleukin-10: SPGQGTQSENSCTHFPGNLPNMLRDLRDAFSRVKTFFQMKDQLDNLLLKESLLEDFKGYLGCQALSEMIQFYLEEVMPQAENQDPDIKAHVNSLGENLKTLRLRLRRCHRFLPCENKSKAVEQVKNAFNKLQEKGIYKAMSEFDIFINYIEAYMTMKIRN
- adhesion formation/reformation [9]: reduces adhesions; also recorded: limited
